Experimental data published in patent publication US4914086A, “Method for treating African human and veterinary trypanosomiases” (priority 1987, dated 1990).

Assays:
T. b. brucei EATRO 110 = assay: Delayed administration of 9-DINO on the EATRO 110 model (Table 2); assay type: in vivo, Trypanosoma brucei brucei (in Swiss-Webster mice); conditions: for # Cured/Total / % Cured: 3 days
From the text: (§1) T. b. brucei EATRO 110 isolate was maintained as described (Bacchi, C. J., H. C. Nathan, S. H. Hutner, P. P. McCann and A. Sjoerdsma; Polyamine metabolism: a potential chemotherapeutic target in trypanosomes. Science 210: 332-334, 1980). It produces an acute, rapidly fatal parasitemia which is lethal to mice 3-5 days after inoculation. Two T. B. brucei strains, TREU 667 and LUMP 1001 developed by Jennings and coworkers (Jennings, F. W., D. D. Whitelaw and G. M. Urquhart; The relationship between duration of infection with Trypanosoma brucei in mice and the efficacy of chemotherapy. Parasitology 75: 143-153, 1977/Jennings, F. W. and G. D. Gray; Relapsed parasitemia following chemotherapy of chronic T. brucei infections in mice and its relation to cerebral trypanosomes; Contr. Microbiol. Immunol. 7 147-154, 1983) were used as CNS models. Both produce infections which are refractory to Berenil® (diminazene aceturate) and develop within 21 days after inoculation. They are not usually fatal until >40 days after inoculation. LUMP 1001 causes a more virulent CNS infection than TREU 667, and is regarded as more difficult to cure (Jennings, F. W. and G. D. Gray. Relapsed parasitemia following chemotherapy of chronic T. brucei infections in mice and its relation to cerebral trypanosomes. Contr. Microbiol. Immunol. 7 147-154, 1983).
Swiss-Webster (25-30 g) mice were used throughout. […] Animals were divided into groups of 5 before treatment. Cured animals survived >30 days beyond deaths of controls. All compounds were administered by i.p. injection.

T. b. brucei TREU 667 = assay: CNS model, T. b. brucei TREU 667 infection in mice (Table 4); assay type: in vivo, Trypanosoma brucei brucei (in Swiss-Webster mice); conditions: for efficacy in CNS model in words: TREU 667
From the text: as §1
The models for […] nervous system infections used TREU 667 and LUMP 1001 strains which were stored frozen and passaged once in rats before infection of mice. Maintenance and use of these screens were as described (Clarkson, A. B. Jr., C. J. Bacchi, G. H. Mellon, H. C. Nathan, P. P. McCann and A. Sjoerdsma. Efficacy of DFMO+blemoycin in a mouse model of central nervous system African trypanosomiasis. Proc. Natl. Acad. Sci. USA. 80: 5729-5733, 1983/Clarkson, A. B. Jr., E. J. Biene, C. J. Bacchi, P. P. McCann, S. H. Hutner and A. Sjoerdsma. New drug combination for experimental late stage African trypanosomiasis: DFMO with suramin. Am. J. Trop. Med. Hyg. 33: 1073-1077, 1984/Dube, D. K., G. Mpimbaza, A. C. Allison, E. Lederer and L. Rovis. Antitrypanosomal activity of sinefungin, Am. J. Trop. Med. Hyg. 32: 31-33, 1983/Fish, W. R., J. J. Marr, R. L. Berens, D. L. Looker, D. J. Nelson, S. LaFon and A. E. Balber. Inosine analogs as chemotherapeutic agents for African trypanosomes: metabolism in trypanosomes and efficacy in tissue culture. Anti-microb. Ag. Chemother. 27: 33-36, 1985/Clazer, R. I., and L. S. Lloyd. Effects of 8-azaadenosine and formycin on cell lethality and the synthesis and methylation of nucleic acids in human colon carcinoma cells in culture. Biochem. Pharmacol. 31: 3207-3214, 1982/Bacchi, C. J., H. C. Nathan, A. B. Clarkson, Jr., E. J. Bienen, A. J. Bitonti, P. P. McCann and A. Sjoerdsma. Activity of the ornithine decarboxylase inhibitors DL-α-difluoromethylornithine and monofluormethyldehydroornithine methylester alone and in combination with suramin against Trypanosoma brucei brucei central nervous system models, Am. J. Trop. Med. Hyg. (in press)). Briefly, groups of 100-120 mice were infected and the infections allowed to develop until day 21, when the animals were separated into groups of 10 and therapy commenced. Controls were treated with Berenil (40 mg/kg) on day 21. These always relapsed 40-70 days after treatment. Parasitemia was followed by examining tail vein blood smears once weekly. Animals which had relapsed were removed from cages. TREU 667 infections were followed >225 days after inoculation and LUMP 1001 were followed >280 days, as determined by the relapse pattern in previous work (Bacchi, C. J., H. C. Nathan, A. B. Clarkson, Jr., E. J. Bienen, A. J. Bitonti, P. P. McCann and A. Sjoerdsma. Activity of the ornithine decarboxylase inhibitors DL-α-difluoromethylornithine and monofluormethyldehydroornithine methylester alone and in combination with suramin against Trypanosoma brucei brucei central nervous system models. Am. J. Trop. Med. Hyg. (in press)). […]

in vivo = assay: in vivo
Procedure: Swiss-Webster (25-30 g) mice were used throughout. In the EATRO 110 model, groups of 100 mice were infected (10^5 trypanosomes/mouse) and the infection was allowed to develop 24 hours before commencing therapy. Animals were divided into groups of 5 before treatment. Cured animals survived >30 days beyond deaths of controls. All compounds were administered by i.p. injection.

[1] = test system: Trypanosoma brucei gambiense; conditions: bone marrow tissue culture system; cited from earlier work
Pneumocystis Carinii = conditions: tissue culture; cited from earlier work
African trypanosomes = conditions: previous studies; cited from earlier work
T. B. gambiense = conditions: cited from earlier work
T. b. rhodesiense = conditions: cited from earlier work
T. b. brucei = conditions: cited from earlier work
[2] = treatment begun 48 h post infection, 25 mg/kg i.p. daily
[3] = treatment begun 48 h post infection, 50 mg/kg i.p. daily
[4] = treatment begun 48 h post infection, 100 mg/kg i.p. daily
[5] = treatment begun 72 h post infection, 25 mg/kg i.p. daily, only fully treated animals
[6] = treatment begun 72 h post infection, 50 mg/kg i.p. daily, only fully treated animals
[7] = treatment begun 72 h post infection, 100 mg/kg i.p. daily, only fully treated animals

Structure (SMILES): O=c1[nH]cnc2c([C@@H]3O[C@H](CO)[C@@H](O)[C@H]3O)c[nH]c12 [9-DINO, 7-beta-D-ribofuranosyl-4-oxo-3H, 5H-pyrrolo (3,2-d) pyrimidine]
- efficacy in words (T. b. brucei EATRO 110; treatment at 48 h post infection, 25 to 100 mg/kg): completely effective
- # Cured/Total (T. b. brucei EATRO 110; [2]): 5/5
- % Cured (T. b. brucei EATRO 110; [2]): 100%
- # Cured/Total (T. b. brucei EATRO 110; [3]): 5/5
- % Cured (T. b. brucei EATRO 110; [3]): 100%
- # Cured/Total (T. b. brucei EATRO 110; [4]): 5/5
- % Cured (T. b. brucei EATRO 110; [4]): 100%
- # Cured/Total (T. b. brucei EATRO 110; [5]): 6/10
- % Cured (T. b. brucei EATRO 110; [5]): 60%
- # Cured/Total (T. b. brucei EATRO 110; [6]): 6/10
- % Cured (T. b. brucei EATRO 110; [6]): 60%
- # Cured/Total (T. b. brucei EATRO 110; [7]): 6/9
- % Cured (T. b. brucei EATRO 110; [7]): 67%
- activity in words (T. b. brucei EATRO 110; treatment delayed 48 or 72 h post infection): active
- # Cured/Total (T. b. brucei TREU 667; 5 mg/kg i.p., 7 days): 0/5
- % Cured (T. b. brucei TREU 667; 5 mg/kg i.p., 7 days): 0%
- Avg. Day of Relapse (Range) (T. b. brucei TREU 667; 5 mg/kg i.p., 7 days): 41 days
- # Cured/Total (T. b. brucei TREU 667; 10 mg/kg i.p., 7 days): 0/5
- % Cured (T. b. brucei TREU 667; 10 mg/kg i.p., 7 days): 0%
- Avg. Day of Relapse (Range) (T. b. brucei TREU 667; 10 mg/kg i.p., 7 days): 41 days
- # Cured/Total (T. b. brucei TREU 667; 25 mg/kg i.p., 7 days): 1/5
- % Cured (T. b. brucei TREU 667; 25 mg/kg i.p., 7 days): 20%
- Avg. Day of Relapse (Range) (T. b. brucei TREU 667; 25 mg/kg i.p., 7 days): 60 (41-135) Day
- # Cured/Total (T. b. brucei TREU 667; 100 mg/kg i.p., 7 days): 0/20
- % Cured (T. b. brucei TREU 667; 100 mg/kg i.p., 7 days): 0%
- Avg. Day of Relapse (Range) (T. b. brucei TREU 667; 100 mg/kg i.p., 7 days): 49 (35-58) Day
- # Cured/Total (T. b. brucei TREU 667; 250 mg/kg i.p., 7 days): 3/10
- % Cured (T. b. brucei TREU 667; 250 mg/kg i.p., 7 days): 30%
- Avg. Day of Relapse (Range) (T. b. brucei TREU 667; 250 mg/kg i.p., 7 days): 68 (45-86) Day
- efficacy in CNS model in words (T. b. brucei TREU 667): did not cure CNS infections
- dose at which toxicity appeared (in vivo; mouse, in vivo): 400 mg/kg
- toxicity in words (in vivo; prolonged (i.e. 1 week) dose regimens): no evidence of toxicity
- activity in words [1]: active at very low concentrations
- activity in words (Pneumocystis Carinii): active
- activity in words (African trypanosomes): more active than allopurinol, thipurinol, and their respective nucleosides
- metabolism in words (T. B. gambiense): metabolized to 9-deaza-ATP
- metabolism in words (T. b. rhodesiense): metabolized to 9-deaza-ATP

Structure (SMILES): Nc1ncnc2c1ncn2[C@@H]1O[C@H](C[C@@H](N)CC[C@H](N)C(=O)O)[C@@H](O)[C@H]1O [Sinefungin, 6,9-Diamino-1-(6-amino-9H-purin-9-yl)-1,5,6,7,8,9-hexadeoxy-beta-D-ribo-decofuranuronic acid]
- # Cured/Total (T. b. brucei TREU 667; 2.5 mg/kg i.p., 4 days): 0/18
- % Cured (T. b. brucei TREU 667; 2.5 mg/kg i.p., 4 days): 0%
- Avg. Day of Relapse (Range) (T. b. brucei TREU 667; 2.5 mg/kg i.p., 4 days): 39 (35-56) Day
- # Cured/Total (T. b. brucei TREU 667; 5 mg/kg i.p., 4 days): 0/10
- % Cured (T. b. brucei TREU 667; 5 mg/kg i.p., 4 days): 0%
- Avg. Day of Relapse (Range) (T. b. brucei TREU 667; 5 mg/kg i.p., 4 days): 41 (35-46) Day
- # Cured/Total (T. b. brucei TREU 667; 10 mg/kg i.p., 3 days): 0/10
- % Cured (T. b. brucei TREU 667; 10 mg/kg i.p., 3 days): 0%
- Avg. Day of Relapse (Range) (T. b. brucei TREU 667; 10 mg/kg i.p., 3 days): 38 (35-46) Day
- # Cured/Total (T. b. brucei TREU 667; 10 mg/kg i.p., 7 days): 6/10
- % Cured (T. b. brucei TREU 667; 10 mg/kg i.p., 7 days): 60%
- Avg. Day of Relapse (Range) (T. b. brucei TREU 667; 10 mg/kg i.p., 7 days): 124 (35-209) Day
- efficacy in CNS model in words (T. b. brucei TREU 667): did not produce complete cures
- % curable (T. b. brucei; 3×5 mg/kg dose, 8 hour intervals): 100%
- cure in words (T. b. brucei; multiple daily doses, Dube et al.): cured
